In patent EP0699074B1, “THROMBIN INHIBITORS” (Merck & Co., Inc., priority 1993, dated 1994):

Target: human α-thrombin (Homo sapiens, UniProt P00734)
Conditions: 4-4 (L at Acg center, later eluting HPLC peak) compared with its diastereomer 4-3 (D)
Procedure: Trypsin assays also contained 1 mM CaCl2.
Concentrations of stock solutions of Z-GPR-afc were determined from measurements of absorbance at 380 nm of the 7-amino-4-trifluoromethyl coumarin produced upon complete hydrolysis of an aliquot of the stock solution by thrombin.
Times required to achieve equilibration between enzyme and inhibitor were determined in control experiments. Initial velocities of product formation in the absence (Vo) or presence of inhibitor (Vi) were measured.

- thrombin inhibitor potency (comparison of the two isomers): more potent thrombin inhibitor
Compound: CNC(=O)C(=O)[C@@H](NC(=O)[C@@H]1CCCN1C(=O)[C@@H](Cc1ccccc1)NC)[C@H]1CC[C@H](N)CC1 [4-4, H-NMe-D-Phe-Pro-t-L-AcgΨ[COCO]-NHMe]
